A short description of data set [1]: LYSA solubility. The conditions noted are these: for solubility thermodynamic: 0.05 M phosphate buffer, pH 6.5, aqueous buffer, thermodynamic from solid. Format: physicochemical. Here is the method:
LYSA solubility assay is used to determine the aqueous solubility of a compound. Samples were prepared in duplicate from 10 mM DMSO stock solution. […] After one night, the solutions were filtered using a microtiter filter plate. Then the filtrate and its 1/10 dilution were analyzed by HPLC-UV.

Data set [2] can be described thus: GSH adduct screening assay. Format: in vitro ADME, rat and human. On the set-up: key: No flag: No Flag: no GSH adduct formation observed when compared to control (DMSO). The settings on record: 20 μM, RLM and HLM, 60 minutes. Here is the method:
The formation of reactive metabolites is an unwanted drug property because of the idiosyncratic clinical adverse effect. GSH adduct formation is used to evaluate the formation of reactive metabolites in vitro. Positive controls were Diclofenac, Troglitazone, Nefazodone and mGluR5. Solvent control was DMSO.
All compounds including positive and solvent control were incubated using a 96-deep-well plate (Eppendorf) at 20 μM (addition of 1 μL of 10 mM DMSO stock solution) in 450 μL of 0.1 M sodium phosphate buffer at pH 7.4 containing rat liver microsomes (RLM) and human liver microsomes (HLM). Microsomal protein concentration is 1 mg/mL. Pipetting was performed using a TECAN pipetting robot. The buffer was prepared at room temperature by combining 2.62 g NaH2PO4.1H2O and 14.43 g Na2HPO4.2H2O dissolved in H2O (Millipore, >18 MΩ) to a weight of 1000 g (pH 7.4). After 5 minutes of pre-incubation at 37° C. the reaction was started by adding 50 μL of buffer containing GSH (100 mM) and NADPH (20 mM). Fresh stock solutions of GSH and NADPH were prepared straight before each experiment. The final concentrations were […] for GSH and 1 mM for NADPH. After 60 minutes of incubation at 37° C. (shaking at 800 rpm) the reaction is quenched with 500 μL of cold acetonitrile and centrifuged at 5000×g at 25° C. for 11 minutes. Before LC-MS/MS analysis the supernatant was split to two fractions, 450 μL and 400 each followed by evaporation using a N2 stream at 35° C. to a volume of approximately […].
Sample clean-up and chromatography of analytes were performed on-line by a column-switching set-up of two HPLC columns. From each sample 50 μL were injected (Shimadzu SilHTC) and loaded with water containing 0.1% formic acid onto a trapping column (Waters Oasis HLB 2.1×10 mm, 25 μm) with a flow rate of 0.3 mL/min. After 1.5 min the trapped analytes were then flushed (included a change in flow direction on the trapping column) onto an analytical column (Waters Atlantis T3 2.1×100 mm, 3 μm) with a total flow of 0.2 mL/min starting with 95/5% water containing 0.1% formic acid/acetonitrile. The fraction of acetonitrile was increased to 20% acetonitrile between 2 and 2.5 minutes, to 70% at 10 minutes and to 98% at 11 minutes. After 12 minutes the analytical column was equilibrated to start conditions (5% acetonitrile). […] The total running time was 14 min per sample.
A triple quadrupole-linear ion trap mass spectrometer 4000 Qtrap equipped with an electrospray ionization source (Turbo V) was used, both from Applied Biosystems/MDS Sciex. Based on a published method of Dieckhaus et al. (2005) a precursor ion survey scan (PreIS) method was used to detect GSH-conjugates in negative ion mode. Briefly, as survey scan ions (400 to 900 amu within 2 seconds) are scanned for precursors of m/z 272 amu, the ion spray voltage was −4200 V, the source temperature 500° C., nitrogen was used as curtain and collision gas. If the parent molecule exceeds a molecular mass of 500 the scan range was changed to 500 amu to 1000 amu within 2 seconds. For signals in the survey scan exceeding 7500 cts (that was approximately 5 times of the background signal), enhanced resolution scan and enhanced product ion scan were triggered which allowed isotope determination and confirmation of a positive GSH adduct by the presence of diagnostic fragment ions. Further instrument settings were as following: Curtain gas: 30 psi, CAD gas: 10 psi Gas 1: 30 psi, Gas 2: 50 psi, declustering potential: −70 V, entrance potential: −10 V, collision energy: −24 V, and cell exit potential −15 V. Data acquisition was performed using Analyst 1.4.2, data analysis, i.e. sample control (solvent) comparisons were performed with Metabolite ID 1.3 (Applied Biosystems/MDS Sciex). (reference: Dieckhaus, C. M., Fernandez-Metzler, C. L., King, R., Krolikowski, P. H., and Baillie, T. A. (2005). Negative ion tandem mass spectrometry for the detection of glutathione conjugates. Chem Res Toxicol 18, 630-638).

Data set [3] relates to CYP3A4. Briefly: Cytochrome P450 induction screening assay, mRNA induction in human cryopreserved hepatocytes. Format: in vitro ADME. The settings on record: 24 hours exposure. An excerpt: Induction of cytochrome P450 enzymes is associated with an increased prevalence of clinical drug-drug interactions. The clinical consequences of induction may be therapeutic failure caused by a decreased systemic exposure of the drug itself or a co-administered therapy, or toxicity as a result of increased bioactivation. Cytochrome P450 (CYP450) induction assay has been used to understand the potential drug-drug interaction liabilities in drug discovery stage. Human cryopreserved hepatocytes (Life Technologies, Carlsbad, USA) were thawed and cultured in collagen I coated 96-well plates with a density of 52,000 cells/well. After attachment, hepatocyte maintenance medium (HMM; Lonza, Switzerland) was changed after cells were pre-cultured overnight. […] Medium change was then performed and cells were exposed for 24 hours to test compounds, positive inducer compounds, or vehicle (0.1% DMSO), respectively. At the end of the compound exposure period, medium was removed and cells lysed using 100 μL/well MagNA Pure LC RNA isolation tissue lysis buffer (Roche Diagnostics AG, Rotkreuz, Switzerland). […] mRNA isolation was performed using the MagNA Pure 96 system (Roche Diagnostics AG, Rotkreuz, Switzerland) and the respective cellular RNA large volume kit (Roche Diagnostics AG, Rotkreuz, Switzerland) from thawed samples diluted 1:1 with PBS. […] The resulting cDNA was diluted with 40 μL of H2O before using for qRT-PCR. qRT-PCR was performed by using the forward and the reverse primer, the corresponding Universal Probe Library (all from Microsynth, Balgach, Switzerland) and the Taqman Fast advanced master mix (Applied Biosystems), on an ABI 7900 machine (Applied Biosystems). qRT-PCR Ct-values for the respective P450s were put into relation to the Ct-value of RN18S1 (microsynth, Balgach, Switzerland) of the same sample. Doing so, a respective Δct-value was calculated. Using the average of all Δct-values for the vehicle control samples, a ΔΔct-value was calculated for each sample (ΔΔct-value(sample)=Δct-value(sample)−average of Δct-value of all vehicle controls). […] The individual fold induction values were then averaged per treatment condition (usually n=3 biological replicates).

≈ marks a conversion by molar mass, not a printed value.

A word on the thermodynamic solubility: it is solubility found after equilibrating the solid with the medium.

For the molecule `CCCS(=N)(=O)c1nc(N)c2[nH]c(=O)n(Cc3ccc(C(=O)O)cc3)c2n1` (stereo not drawn) [Example 39, 4-[[6-Amino-8-oxo-2-(propylsulfonimidoyl)-7H-purin-9-yl]methyl]benzoic acid], in data set [1], the thermodynamic solubility was > 520 µg/mL. Also, the GSH results in data set [2] was “No flag”.
The molecule `CCS(=N)(=O)c1nc(N)c2[nH]c(=O)n(Cc3ccc(C)cc3)c2n1` (single isomer, unassigned) [Example 71-A, 6-Amino-2-(ethylsulfonimidoyl)-9-(p-tolylmethyl)-7H-purin-8-one] returned a solubility (thermodynamic) in data set [1] of 13 µg/mL (≈ 37.5 µM). For the same molecule, the GSH results in data set [2] was “No flag”. The “Relative induction of Positive control (10 μM Rifampicin) (%)” value (“Relative induction … (%)” for short) in data set [3] is −0.10%.
On to `CCCS(=N)(=O)c1nc(N)c2[nH]c(=O)n(Cc3ccc(C)nc3)c2n1` (stereo not drawn) [Example 34, 6-Amino-9-[(6-methyl-3-pyridyl)methyl]-2-(propylsulfonimidoyl)-7H-purin-8-one], for which the GSH results in data set [2] is “No flag”.
Consider `CCCS(=N)(=O)c1nc(N)c2[nH]c(=O)n(Cc3ccccc3)c2n1` (single isomer, unassigned) [Example 4-B, 6-Amino-9-benzyl-2-(propylsulfonimidoyl)-7H-purin-8-one], for which, in data set [1] (0.05 M phosphate buffer (pH 6.5)), the “LYSA” value is 50 µg/mL. For the same molecule, the GSH results in data set [2] is on record as “No flag”. Also, the “Relative induction … (%)” value in data set [3] is −0.90%.
Take `CCS(=N)(=O)c1nc(N)c2[nH]c(=O)n(Cc3ccc(Cl)cc3)c2n1` (single isomer, unassigned) [Example 70-B, 6-Amino-9-[(4-chlorophenyl)methyl]-2-(ethylsulfonimidoyl)-7H-purin-8-one]: in data set [1], the thermodynamic solubility stood at 5 µg/mL (≈ 13.6 µM). In data set [2], the GSH results is listed as “No flag”. In data set [3], the “Relative induction … (%)” value is recorded as −0.42%.
Regarding `CCS(=N)(=O)c1nc(N)c2[nH]c(=O)n(Cc3ccc(Cl)cc3)c2n1` (single isomer, unassigned) [Example 70-A, 6-Amino-9-[(4-chlorophenyl)methyl]-2-(ethylsulfonimidoyl)-7H-purin-8-one], in data set [2], the GSH results is “No flag”. The “Relative induction … (%)” value in data set [3] came out at 0.42%.
Turning to `CCCS(=N)(=O)c1nc(N)c2[nH]c(=O)n(Cc3ccc(Cl)cc3)c2n1` (stereo not drawn) [Example 9, 6-Amino-9-[(4-chlorophenyl)methyl]-2-(propylsulfonimidoyl)-7H-purin-8-one], in data set [2], the GSH results is reported as “No flag”.
In turn, `CCCS(=N)(=O)c1nc(N)c2[nH]c(=O)n(Cc3ccccc3)c2n1` (single isomer, unassigned) [Example 4-A, 6-Amino-9-benzyl-2-(propylsulfonimidoyl)-7H-purin-8-one] came in with a thermodynamic solubility in data set [1] of 56 µg/mL (≈ 162 µM). Further, the GSH results in data set [2] is reported as “No flag”. In data set [3], the “Relative induction … (%)” value was −0.63%.
For the molecule `CCCS(=N)(=O)c1nc(N)c2[nH]c(=O)n(Cc3ccccc3)c2n1` (stereo not drawn) [Example 4, 6-Amino-9-benzyl-2-(propylsulfonimidoyl)-7H-purin-8-one], the thermodynamic solubility in data set [1] was 21 µg/mL (≈ 60.6 µM). For the same molecule, in data set [2], the GSH results is “No flag”.
As for `CCCS(=N)(=O)c1nc(N)c2[nH]c(=O)n(Cc3ccc(F)c(F)c3)c2n1` (stereo not drawn) [Example 27, 6-Amino-9-(3,4-difluorophenylmethyl)-2-(propylsulfonimidoyl)-7H-purin-8-one], the thermodynamic solubility in data set [1] was determined as 7 µg/mL (≈ 18.3 µM). Also, the GSH results in data set [2] is on record as “No flag”.
The molecule `CCCS(=N)(=O)c1nc(N)c2[nH]c(=O)n(Cc3ccc(C)cc3)c2n1` (single isomer, unassigned) [Example 29-A, 6-Amino-2-(propylsulfonimidoyl)-9-(p-tolylmethyl)-7H-purin-8-one] yielded a thermodynamic solubility in data set [1] of 6 µg/mL (≈ 16.6 µM). For the same molecule, the GSH results in data set [2] is reported as “No flag”.

The values above are taken from patent publication US9708325B2, “Sulfonimidoylpurinone compounds and derivatives for the treatment and prophylaxis of virus infection” (Hoffmann-La Roche Inc., priority 2015, dated 2017).
